Row | Structure (SMILES) | melting point
1 | CC(C)(CNC(=O)c1cc2cccc(NS(=O)(=O)c3cccs3)c2[nH]1)SCc1ccccc1 | 170 to 171 °C
2 | COc1cc2nc(S(=O)(=O)Nc3c(OC)ccnc3Cl)nn2c(OC)n1 | 197 to 199 °C
3 | CCCCCCCCCCCCCCCCCC(CCC(=O)O)(CCC(=O)O)[N+](=O)[O-] | 102 °C
4 | CCc1cc2c(s1)N(C)C(=O)C(OC(=O)Nc1cccc(C)c1)N=C2c1ccccc1Cl (stereo unspecified) | 181 to 182 °C
5 | CC(=O)Nc1ccc(S(=O)(=O)N(CCCl)CCCl)cc1 | 113 to 114 °C
6 | CCOC(=O)C(=O)Nc1cc(CC)c(C(=O)OCC)s1 | 103 to 105 °C
7 | CC(C)(C)OC(=O)NCCc1cccc(C(=O)Nc2ccc(Nc3cc(-c4cccc5c4oc4ccccc45)ncn3)cc2)c1 | 235 to 238 °C
8 | Cc1ccc(OCc2nc(-c3ccccc3)oc2C)cn1 | 103 to 104 °C
9 | CC1(C)Oc2ccc(C#N)cc2C(Oc2ccnnc2)C1(C)O (stereo unspecified) | 103 to 105 °C
10 | Cc1nc(NC(=O)c2cnn3c(C(F)F)cc(-c4ccc(C(F)(F)F)cc4)nc23)sc1S(=O)(=O)N(CCO)CCO | 191 °C
11 | O=C(NCc1ccc(Cl)cc1)c1noc2ccc(C#CCO)cc2c1=O | 117 to 120 °C
12 | COC(=O)C1CCC2C3CCC4CC(O)C(Br)CC4(C)C3CCC12C (stereo unspecified) | 195 to 198 °C
13 | COc1ccc2c(c1)C(C(=O)N(Cc1ccc(NCc3ccccc3)cc1)c1ccc(C(C)C)cc1)CCC2 (stereo unspecified) | 135 to 138 °C
14 | O=C(OCC1OC(n2ccc(-n3cncn3)nc2=O)C(OC(=O)c2ccccc2)C1OC(=O)c1ccccc1)c1ccccc1 (stereo unspecified) | 83 to 84 °C
15 | CCCCOc1cc(C=CC(=O)O)n(Cc2ccc(Cl)cc2Cl)n1 | 176 to 179 °C
16 | CCCCc1ncc(/C=C(\Cc2ccc([N+](=O)[O-])cc2)C(=O)O)n1Cc1ccccc1Cl | 207 to 208 °C
17 | CCCC(CCC)C(=O)O/N=C(\C)[C@H]1CC[C@H]2[C@@H]3CCC4=CC(=O)CC[C@]4(C)[C@H]3CC[C@]12C | 78 to 80 °C
18 | COC(=O)CCCCc1ccc(CCNC(C)=O)cc1 | 57 to 59 °C
19 | COC(=O)c1cccc(Cl)c1NC(=O)CC1c2ccccc2Oc2ccccc21 | 178 to 179 °C
20 | CCOC(=O)CCCn1ccnc1CSc1ccc(N)cc1 | 74 to 75 °C
21 | CN(Cc1cccc2c1C(=O)N(C1CCC(=O)NC1=O)C2=O)C(=O)Nc1ccc2ccccc2c1 (stereo unspecified) | > 260 °C
22 | COC(=O)NNc1cc(C)c(-c2ccc(C#N)cc2)nn1 | 191 to 192 °C
23 | CCCOc1cccc(C2(c3cc(C(=O)CC)n(CC)c3)N=C(N)N(C)C2=O)c1 (stereo unspecified) | 95 °C
24 | CSc1ccc(-c2coc3ccc(-c4nnc(C)o4)cc23)cc1Cl | 200 to 201 °C
25 | Cc1ccc(-n2nc(C(F)F)cc2-c2ccc(S(C)(=O)=O)cc2)cc1F | 161 to 162 °C

Continued, values first:

Row | melting point | Structure (SMILES)
26 | 138 to 140 °C | CC(C)CN1C(=O)[C@@H](CCCl)O[C@H](c2ccccc2Cl)c2cc(Cl)ccc21 (relative stereo)
27 | 172 °C | Nc1ccccc1C(=O)NN1CCOCC1
28 | 310 °C | CS(=O)(=O)c1ccc(-c2ccc3cnc(Nc4ccc(C5CCN(CC(N)=O)CC5)cc4)nn23)cc1
29 | 140 to 142 °C | O=C(O)C(=O)CC(=O)c1ccc(C2CCCCC2)cc1
30 | 89 to 90 °C | CC(C)(C)[C@H]1CC[C@@H](Nc2ncnc(I)c2Cl)CC1
31 | 97 to 98 °C | C[C@H]1CCCN(C(=O)Cc2ccc(Cl)c(Cl)c2)[C@H]1C=O (relative stereo)
32 | 60 °C | S=c1cc(N2CCOCC2)ss1
33 | 220 to 226 °C | NC1=NC(c2ccc(OC(F)F)cc2)(c2cccc(-c3cccnc3F)c2)C2=NCC3(CCC3)CN12 (stereo unspecified)
34 | 86 to 87 °C | CCc1nc2ccc(F)cc2c(OC(=O)C2CC2)c1C
35 | 149 to 151 °C | CS(=O)(=O)N1CCN(c2ccc(OC[C@H]3CCn4cc([N+](=O)[O-])nc4O3)cc2)CC1
36 | 142 to 144 °C | COc1ccccc1OC1CCN(c2nc(-c3ccccc3)nc3ccccc23)C1 (stereo unspecified)
